Reference: ChEMBL document CHEMBL1201862, “PubChem BioAssay data set” (2004)
Activity calls are given as the source filed them.

Experiments:
[1] = target: Luciferin 4-monooxygenase (Photinus pyralis, UniProt P08659); test: Counter Screen for Luciferase-based Assay Positives. [Related pubchem assays: 620, 618, 411 ]
[2] = test system: HT-1080; test: HT1080 cell viability loss – fluorescence readout (AID 620); format: functional, cell-based; conditions: Homo sapiens
[3] = target: Ras and Rab interactor 1/Tyrosine-protein kinase ABL1 (Homo sapiens, UniProt P00519+Q13671); format: functional;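 further: biochemical TR-FRET dose-response test measuring inhibition of binding between Rin1 and Abl proteins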
[4] = target: T1, Histone-lysine N-methyltransferase NSD2 (Homo sapiens, UniProt O96028); format: biochemical
T1 sequence (O96028 whole entry): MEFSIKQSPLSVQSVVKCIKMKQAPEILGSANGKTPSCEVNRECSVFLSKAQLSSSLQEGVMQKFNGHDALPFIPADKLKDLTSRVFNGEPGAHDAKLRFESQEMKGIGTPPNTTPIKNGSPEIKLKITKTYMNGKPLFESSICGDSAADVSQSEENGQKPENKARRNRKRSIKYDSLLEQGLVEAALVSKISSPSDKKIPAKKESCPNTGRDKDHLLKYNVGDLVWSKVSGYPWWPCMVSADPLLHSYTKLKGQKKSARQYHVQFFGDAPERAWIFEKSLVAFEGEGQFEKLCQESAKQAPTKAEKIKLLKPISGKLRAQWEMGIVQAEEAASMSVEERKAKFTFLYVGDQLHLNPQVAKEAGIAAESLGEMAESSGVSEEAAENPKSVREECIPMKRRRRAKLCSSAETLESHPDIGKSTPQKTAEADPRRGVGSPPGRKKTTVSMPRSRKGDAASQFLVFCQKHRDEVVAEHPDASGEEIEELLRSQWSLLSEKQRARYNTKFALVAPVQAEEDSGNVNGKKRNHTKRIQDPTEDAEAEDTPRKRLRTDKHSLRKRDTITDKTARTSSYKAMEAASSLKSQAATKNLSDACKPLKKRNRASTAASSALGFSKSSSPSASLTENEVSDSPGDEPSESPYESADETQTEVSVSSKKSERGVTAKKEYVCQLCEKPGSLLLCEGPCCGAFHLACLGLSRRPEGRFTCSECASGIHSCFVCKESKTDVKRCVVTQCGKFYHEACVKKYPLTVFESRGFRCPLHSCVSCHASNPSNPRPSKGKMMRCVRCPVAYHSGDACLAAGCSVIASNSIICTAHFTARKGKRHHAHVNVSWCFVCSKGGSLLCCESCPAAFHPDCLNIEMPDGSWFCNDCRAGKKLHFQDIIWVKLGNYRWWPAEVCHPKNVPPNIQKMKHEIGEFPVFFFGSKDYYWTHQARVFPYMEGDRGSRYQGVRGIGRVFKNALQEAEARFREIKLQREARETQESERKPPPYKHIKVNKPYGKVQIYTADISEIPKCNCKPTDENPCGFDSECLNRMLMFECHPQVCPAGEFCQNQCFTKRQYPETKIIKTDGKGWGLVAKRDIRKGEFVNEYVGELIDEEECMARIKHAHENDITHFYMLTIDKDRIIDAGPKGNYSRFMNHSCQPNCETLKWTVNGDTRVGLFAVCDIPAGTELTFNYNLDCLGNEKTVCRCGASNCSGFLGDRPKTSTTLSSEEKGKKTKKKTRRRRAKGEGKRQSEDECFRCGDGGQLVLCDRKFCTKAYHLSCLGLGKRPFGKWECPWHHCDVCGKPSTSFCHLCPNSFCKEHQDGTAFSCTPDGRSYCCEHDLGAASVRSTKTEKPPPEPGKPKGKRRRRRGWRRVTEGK

[5] = target: Nonstructural protein 1 (Influenza A virus, UniProt Q194T2); format: functional, Influenza A virus (A/California/07/2009(H1N1))
[6] = target: Estrogen receptor beta (Homo sapiens, UniProt Q92731); test: blockers of SRC-3 recruitment to ERβ – biochemical, ELISA, streptavidin-HRP readout, orthogonal assay, confirmation (AID 1060)
[7] = cells
[8] = NIH3T3 cell viability loss – ATP luminescence, mouse fibroblasts, counter-screen, dose response (AID 2010); format: functional, cell-based;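 further: cells exposed to compound for about 90 hours before reading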
[9] = Trypanosoma cruzi growth suppression in host cells – NIH3T3 host cells, beta-gal luminescence, confirmation (AID 2044); format: functional, cell-based;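 further: intracellular parasites grown in NIH/3T3 mouse fibroblasts as host cells; luminescent beta-galactosidase reporter signal from transgenic T. cruzi replicating inside host cells; inhibitors lower the luminescence signal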

Sequence of Estrogen receptor beta (Q92731 whole entry): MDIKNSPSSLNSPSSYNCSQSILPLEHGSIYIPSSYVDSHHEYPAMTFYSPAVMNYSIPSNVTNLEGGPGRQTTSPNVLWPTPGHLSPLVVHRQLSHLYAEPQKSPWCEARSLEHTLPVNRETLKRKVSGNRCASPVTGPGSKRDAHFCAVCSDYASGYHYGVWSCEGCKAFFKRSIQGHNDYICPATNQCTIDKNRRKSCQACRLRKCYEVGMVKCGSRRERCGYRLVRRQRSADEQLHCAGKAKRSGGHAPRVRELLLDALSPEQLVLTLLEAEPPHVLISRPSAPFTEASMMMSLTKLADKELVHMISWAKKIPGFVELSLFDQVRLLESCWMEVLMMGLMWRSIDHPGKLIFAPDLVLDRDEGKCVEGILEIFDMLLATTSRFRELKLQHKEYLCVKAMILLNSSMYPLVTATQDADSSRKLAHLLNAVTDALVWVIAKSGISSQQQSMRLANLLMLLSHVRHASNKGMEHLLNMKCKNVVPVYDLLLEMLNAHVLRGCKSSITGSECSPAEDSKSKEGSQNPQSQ
Sequence of Ras and Rab interactor 1/Tyrosine-protein kinase ABL1 (P00519 whole entry): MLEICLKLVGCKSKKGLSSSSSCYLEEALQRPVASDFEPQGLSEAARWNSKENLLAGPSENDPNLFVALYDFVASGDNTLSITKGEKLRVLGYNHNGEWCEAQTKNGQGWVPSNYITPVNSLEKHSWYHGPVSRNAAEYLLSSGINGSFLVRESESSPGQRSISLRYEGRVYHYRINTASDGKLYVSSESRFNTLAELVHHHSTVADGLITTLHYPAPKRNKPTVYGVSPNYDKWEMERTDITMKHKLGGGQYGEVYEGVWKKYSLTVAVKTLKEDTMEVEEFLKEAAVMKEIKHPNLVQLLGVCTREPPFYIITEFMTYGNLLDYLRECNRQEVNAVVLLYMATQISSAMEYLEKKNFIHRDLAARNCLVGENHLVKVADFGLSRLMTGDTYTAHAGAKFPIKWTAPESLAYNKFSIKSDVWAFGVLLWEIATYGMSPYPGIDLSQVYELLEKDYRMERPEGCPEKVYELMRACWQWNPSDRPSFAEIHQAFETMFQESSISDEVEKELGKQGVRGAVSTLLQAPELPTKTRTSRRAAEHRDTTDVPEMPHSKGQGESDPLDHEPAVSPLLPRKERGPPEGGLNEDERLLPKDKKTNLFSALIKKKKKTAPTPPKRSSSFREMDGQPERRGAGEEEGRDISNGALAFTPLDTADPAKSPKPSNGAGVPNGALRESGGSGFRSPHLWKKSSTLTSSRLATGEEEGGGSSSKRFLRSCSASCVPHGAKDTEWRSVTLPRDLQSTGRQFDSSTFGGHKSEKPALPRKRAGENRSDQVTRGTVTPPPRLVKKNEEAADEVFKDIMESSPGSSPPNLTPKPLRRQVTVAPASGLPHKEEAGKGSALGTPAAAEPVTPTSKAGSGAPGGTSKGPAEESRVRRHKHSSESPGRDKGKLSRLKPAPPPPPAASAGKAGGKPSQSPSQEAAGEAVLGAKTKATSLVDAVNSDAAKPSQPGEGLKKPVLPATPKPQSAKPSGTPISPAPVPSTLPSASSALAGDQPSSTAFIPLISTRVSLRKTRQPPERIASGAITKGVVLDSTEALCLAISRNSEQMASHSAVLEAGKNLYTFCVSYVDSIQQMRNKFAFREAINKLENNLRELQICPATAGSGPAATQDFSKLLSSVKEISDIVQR
Sequence of Ras and Rab interactor 1/Tyrosine-protein kinase ABL1 (Q13671 whole entry): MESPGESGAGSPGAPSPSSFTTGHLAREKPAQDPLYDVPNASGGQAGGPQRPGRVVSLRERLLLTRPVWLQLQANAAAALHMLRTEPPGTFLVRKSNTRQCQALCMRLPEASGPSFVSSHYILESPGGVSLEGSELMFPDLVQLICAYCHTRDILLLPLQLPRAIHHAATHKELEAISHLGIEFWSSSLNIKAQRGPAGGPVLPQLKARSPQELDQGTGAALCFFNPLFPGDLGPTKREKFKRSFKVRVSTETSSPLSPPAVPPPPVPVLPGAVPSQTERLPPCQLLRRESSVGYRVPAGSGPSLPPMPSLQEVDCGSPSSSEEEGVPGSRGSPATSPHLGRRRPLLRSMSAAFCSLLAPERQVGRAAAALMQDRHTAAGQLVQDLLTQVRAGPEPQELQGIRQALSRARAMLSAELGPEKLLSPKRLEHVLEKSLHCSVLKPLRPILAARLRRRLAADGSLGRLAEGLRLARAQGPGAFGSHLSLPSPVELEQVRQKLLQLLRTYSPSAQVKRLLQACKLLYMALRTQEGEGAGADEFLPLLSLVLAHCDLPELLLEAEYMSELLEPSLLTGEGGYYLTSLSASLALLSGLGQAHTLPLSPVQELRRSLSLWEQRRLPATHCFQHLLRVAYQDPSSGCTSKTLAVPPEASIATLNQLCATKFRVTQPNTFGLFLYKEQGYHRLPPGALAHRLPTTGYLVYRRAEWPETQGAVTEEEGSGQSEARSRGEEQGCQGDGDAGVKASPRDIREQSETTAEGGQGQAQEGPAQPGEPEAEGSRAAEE
Sequence of Nonstructural protein 1 (Q194T2 whole entry): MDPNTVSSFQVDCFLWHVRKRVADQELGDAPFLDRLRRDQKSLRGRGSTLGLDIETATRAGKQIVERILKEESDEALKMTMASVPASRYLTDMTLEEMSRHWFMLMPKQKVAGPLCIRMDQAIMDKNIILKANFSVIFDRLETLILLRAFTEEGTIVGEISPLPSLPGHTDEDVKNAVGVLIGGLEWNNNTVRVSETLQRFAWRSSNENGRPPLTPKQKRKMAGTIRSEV
Sequence of Luciferin 4-monooxygenase (P08659 whole entry): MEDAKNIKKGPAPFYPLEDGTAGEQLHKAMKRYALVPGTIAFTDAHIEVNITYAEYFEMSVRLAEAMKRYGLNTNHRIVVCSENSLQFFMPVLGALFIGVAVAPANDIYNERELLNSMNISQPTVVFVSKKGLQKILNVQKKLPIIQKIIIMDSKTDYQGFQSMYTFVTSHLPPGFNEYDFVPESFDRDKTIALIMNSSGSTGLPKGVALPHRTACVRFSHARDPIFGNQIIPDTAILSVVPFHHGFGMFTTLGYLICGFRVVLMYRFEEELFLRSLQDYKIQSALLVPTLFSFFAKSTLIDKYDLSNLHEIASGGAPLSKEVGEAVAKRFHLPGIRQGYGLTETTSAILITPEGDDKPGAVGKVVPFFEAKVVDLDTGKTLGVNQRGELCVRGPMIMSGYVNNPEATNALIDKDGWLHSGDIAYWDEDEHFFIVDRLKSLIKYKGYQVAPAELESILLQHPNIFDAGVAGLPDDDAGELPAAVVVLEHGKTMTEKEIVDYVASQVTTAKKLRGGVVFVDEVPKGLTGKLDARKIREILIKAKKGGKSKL

Row | Structure (SMILES) | IC50 [6] | EC50 [7] | EC50 [8] | EC50 [9] | other results
1 | O=C(CSc1nnc(-c2csc3c2CCCC3)o1)Nc1ccccc1 |  |  |  |  | EC50 [1]: 4340 nM (active); EC50 [2]: > 50000 nM (not active)
2 | CC1NC(=O)NC1CCCCCC(=O)Nc1ccc(F)c(Cl)c1 (stereo not drawn) |  |  |  |  | IC50 [3]: 15 nM (active); AC50 [4]: 343 nM (active); IC50 [5]: 1160 nM (active)
3 | CN1CCN(c2ccc(NC(=O)COc3ccccc3Cl)cc2)CC1 | 814 nM (not active) |  |  |  | 
4 | N#Cc1c(NC(=O)CN2CCCCC2)sc2c1CCCC2 | 34.3 nM (not active) |  |  |  | 
5 | CC1CN(CCOCCSc2ccc(Cl)cc2)CC(C)O1 (stereo not drawn) |  | 25 nM (active) | > 60000 nM (not active) | < 100 nM (active) | 
6 | O=C(C1=C[C@H](C2CCCCC2)C[C@H](OCc2ccc(CO)cc2)O1)N1CCN(Cc2ccc3c(c2)OCO3)CC1 |  | 156 nM (active) | > 60000 nM (not active) | < 100 nM (active) | 
